Test results taken from publication PMC7872314, “Modeling Bioavailable Concentrations in Zebrafish Cell Lines and Embryos Increases the Correlation of Toxicity Potencies across Test Systems” (Environmental Science & Technology, 2020).
Read-outs that look alike come from different tables or passages of the source.

Tests used:
[1] = test system: ZF4 (fibroblasts) cell line; assay: MTS assay (MTS/BCA multiplex), NAD(P)H metabolism; type: cell-based, zebrafish (Danio rerio); details: Danio rerio, Fibroblast
[2] = test system: ZFL (hepatocytes) cell line; assay: cells; type: cell-based, zebrafish (Danio rerio); details: Danio rerio, Hepatocyte
[3] = test system: ZFL (hepatocytes) cell line; assay: cells; type: cell-based, zebrafish (Danio rerio); details: Danio rerio, Hepatocyte; remark: listed apart in the source
[4] = test system: ZFL (hepatocytes) cell line; assay: cells; type: cell-based, zebrafish (Danio rerio); details: Danio rerio, Hepatocyte; remark: listed apart in the source
[5] = test system: ZFL (hepatocytes) cell line; assay: cells; type: cell-based, zebrafish (Danio rerio); details: Danio rerio, Hepatocyte; remark: listed apart in the source
[6] = test system: ZF4 and ZFL cell lines; assay: Cytotoxicity assays, all endpoints, both cell lines (mean/range); type: cell-based, zebrafish (Danio rerio); details: 48 h, mean of all cytotoxicity endpoints (without LDH) in ZF4 and ZFL
[7] = test system: zebrafish embryos; parameters: method as in earlier work; details: nominal, cited from earlier work
[8] = ref Comptox, PubChem or DrugBank; cited from earlier work
[9] = test system: ZF4 (fibroblasts) cell line; assay: BCA assay (MTS/BCA multiplex), protein amount; type: cell-based, zebrafish (Danio rerio); details: Danio rerio, Fibroblast
[10] = test system: ZF4 (fibroblasts) cell line; assay: ATP assay (ATP/LDH multiplex), ATP metabolism; type: cell-based, zebrafish (Danio rerio); details: Danio rerio, Fibroblast
[11] = test system: ZFL (hepatocytes) cell line; assay: cells; type: cell-based, zebrafish (Danio rerio); details: Danio rerio, Hepatocyte; remark: listed apart in the source
[12] = test system: ZFL (hepatocytes) cell line; assay: cells; type: cell-based, zebrafish (Danio rerio); details: Danio rerio, Hepatocyte; remark: listed apart in the source
[13] = test system: ZFL (hepatocytes) cell line; assay: cells; type: cell-based, zebrafish (Danio rerio); details: Danio rerio, Hepatocyte; remark: listed apart in the source
[14] = test system: zebrafish embryos; assay: animal or person; type: in vivo, zebrafish (Danio rerio); details: for EC50: Danio rerio
[15] = test system: ZF4 (fibroblasts) cell line; assay: Neutral red, absorbance (NRa), AB/CFDA/NR multiplex, lysosome stability; type: cell-based, zebrafish (Danio rerio); details: Danio rerio, Fibroblast
[16] = test system: ZF4 (fibroblasts) cell line; assay: alamarBlue (AB) endpoint of AB/CFDA/NR multiplex, cellular respiration; type: cell-based, zebrafish (Danio rerio); details: Danio rerio, Fibroblast
[17] = test system: ZF4 (fibroblasts) cell line; assay: Neutral red, fluorescence (NRf), AB/CFDA/NR multiplex, lysosome stability; type: cell-based, zebrafish (Danio rerio); details: Danio rerio, Fibroblast
[18] = test system: diverse mammalian cell assay results; parameters: method as in https://comptox.epa.gov/dashboard/; details: COMPTOX; ref https://comptox.epa.gov/dashboard/; read-out: median AC50; cited from earlier work
[19] = test system: zebrafish cell lines vs zebrafish embryo; assay: Potency ratios IC50;x/EC50;x (cytotoxicity assays vs mFET); parameters: species or system zebrafish (Danio rerio)
[20] = test system: ZF4 (fibroblasts) cell line; assay: CFDA endpoint of AB/CFDA/NR multiplex, membrane stability; type: cell-based, zebrafish (Danio rerio); details: Danio rerio, Fibroblast

Work on `COC(=O)Nc1nc2ccc([S+]([O-])c3ccccc3)cc2[nH]1` (stereo not drawn) [Oxfendazole, oxfendazole] yielded an IC50 ([1]; MTS - ZF4, log10 of IC50, read-out: LogIC50 (converted)) of 20.4 µM, an IC50 ([1]; MTS - ZF4, read-out: IC50) of 20.4 µM and an IC50 ([1]; ZF4, 48 h exposure, nominal, log10, read-out: logIC50 (log10 IC50;nom) MTS (converted)) of 20.4 µM. The IC50 ([1]; ZF4, 48 h exposure, nominal, read-out: IC50;nom MTS) was 20.4 µM, the IC50 ([2]; NR-abs - ZFL, log10 of IC50, read-out: LogIC50 (converted)) was 8.93 µM and the IC50 ([2]; NR-abs - ZFL, read-out: IC50) was 8.93 µM. The IC50 ([2]; ZFL, 48 h exposure, nominal, log10, read-out: logIC50 (log10 IC50;nom) NRa (converted)) was 8.91 µM, the IC50 ([2]; ZFL, 48 h exposure, nominal, read-out: IC50;nom NRa) was 8.93 µM and the IC50 ([3]; ATP - ZFL, log10 of IC50, read-out: LogIC50 (converted)) was 106 µM. The IC50 ([3]; ATP - ZFL, read-out: IC50) was 106 µM, the IC50 ([3]; ZFL, 48 h exposure, nominal, log10, read-out: logIC50 (log10 IC50;nom) ATP (converted)) was 105 µM and the IC50 ([3]; ZFL, 48 h exposure, nominal, read-out: IC50;nom ATP) was 106 µM. It also gave an IC50 ([4]; AB - ZFL, log10 of IC50, read-out: LogIC50 (converted)) of 10.4 µM, an IC50 ([4]; AB - ZFL, read-out: IC50) of 10.4 µM and an IC50 ([4]; ZFL, 48 h exposure, nominal, log10, read-out: logIC50 (log10 IC50;nom) AB (converted)) of 10.5 µM. It also gave an IC50 ([4]; ZFL, 48 h exposure, nominal, read-out: IC50;nom AB) of 10.4 µM, an IC50 ([5]; NR-fluo - ZFL, log10 of IC50, read-out: LogIC50 (converted)) of 7.37 µM and an IC50 ([5]; NR-fluo - ZFL, read-out: IC50) of 7.37 µM. For the same compound, the IC50 ([5]; ZFL, 48 h exposure, nominal, log10, read-out: logIC50 (log10 IC50;nom) NRf (converted)) was 7.41 µM, the IC50 ([5]; ZFL, 48 h exposure, nominal, read-out: IC50;nom NRf) was 7.37 µM and the IC50 ([6]; Danio rerio, log10, read-out: Mean log IC50nom (converted)) was 23.4 µM. For the same compound, the “Mean log IC50nom” value ([6]; log10, listed as Ox) was -4.631 M, the EC50 ([7]; 144 hpf, converted, listed as Ox) was 21.6 µM and the “logEC50 144 hpf” value ([7]; log10) was -4.666 M. For the same compound, the BCF [8] was 161, the Physiological charge [8] was 0 and the “Water Solubility” value [8] was “insoluble”. The logKoa [8] was 9.57, the logKow [8] was 1.45 and the “pKa (Strongest Acidic)” value [8] was 9.26. The “pKa (Strongest Basic)” value [8] was 3.57, the “w_solubility (water solubility)” value [8] was 864 µM and the IC50 ([9]; BCA - ZF4, log10 of IC50, read-out: LogIC50 (converted)) was 6.43 µM. For the same compound, the IC50 ([9]; BCA - ZF4, read-out: IC50) was 6.43 µM, the IC50 ([9]; ZF4, 48 h exposure, nominal, log10, read-out: logIC50 (log10 IC50;nom) BCA (converted)) was 6.46 µM and the IC50 ([9]; ZF4, 48 h exposure, nominal, read-out: IC50;nom BCA) was 6.43 µM. The IC50 ([10]; ATP - ZF4, log10 of IC50, read-out: LogIC50 (converted)) was 144 µM, the IC50 ([10]; ATP - ZF4, read-out: IC50) was 144 µM and the IC50 ([10]; ZF4, 48 h exposure, nominal, log10, read-out: logIC50 (log10 IC50;nom) ATP (converted)) was 145 µM. The IC50 ([10]; ZF4, 48 h exposure, nominal, read-out: IC50;nom ATP) was 144 µM, the IC50 ([11]; BCA - ZFL, log10 of IC50, read-out: LogIC50 (converted)) was 0.058 µM and the IC50 ([11]; BCA - ZFL, read-out: IC50) was 0.058 µM. It also gave an IC50 ([11]; ZFL, 48 h exposure, nominal, log10, read-out: logIC50 (log10 IC50;nom) BCA (converted)) of 0.0575 µM, an IC50 ([11]; ZFL, 48 h exposure, nominal, read-out: IC50;nom BCA) of 0.058 µM and an IC50 ([12]; CFDA - ZFL, log10 of IC50, read-out: LogIC50 (converted)) of 320 µM. The IC50 ([12]; CFDA - ZFL, read-out: IC50) was 320 µM, the IC50 ([12]; ZFL, 48 h exposure, nominal, log10, read-out: logIC50 (log10 IC50;nom) CFDA (converted)) was 324 µM and the IC50 ([12]; ZFL, 48 h exposure, nominal, read-out: IC50;nom CFDA) was 320 µM. It also gave an IC50 ([13]; MTS - ZFL, log10 of IC50, read-out: LogIC50 (converted)) of 9.73 µM, an IC50 ([13]; MTS - ZFL, read-out: IC50) of 9.73 µM and an IC50 ([13]; ZFL, 48 h exposure, nominal, log10, read-out: logIC50 (log10 IC50;nom) MTS (converted)) of 9.77 µM. For the same compound, the IC50 ([13]; ZFL, 48 h exposure, nominal, read-out: IC50;nom MTS) was 9.73 µM, the “difference in toxicity (EC50;nom) between 48 hpf and 144 hpf” value ([14]; 48 hpf time point less sensitive than 144 hpf) was “approximately the same” and the “log EC50;nom (mFET)” value ([14]; 48 hpf, nominal, log10, listed as Ox) was -4.607 M. The EC50 ([14]; 48 hpf, nominal, log10, read-out: log EC50;nom (mFET) (converted)) was 24.5 µM, the EC50 ([14]; 48 hpf, nominal, read-out: EC50;nom (embryo)) was 7.79 µg/mL and the EC50 ([14]; read-out: EC50 48hpf) was 24.7 µM. The EC50 ([14]; read-out: EC50;nom (mFET)) was 24.7 µM, the IC50 ([15]; NR-abs - ZF4, log10 of IC50, read-out: LogIC50 (converted)) was 58.6 µM and the IC50 ([15]; NR-abs - ZF4, read-out: IC50) was 58.6 µM. It also gave an IC50 ([15]; ZF4, 48 h exposure, nominal, log10, read-out: logIC50 (log10 IC50;nom) NRa (converted)) of 58.9 µM, an IC50 ([15]; ZF4, 48 h exposure, nominal, read-out: IC50;nom NRa) of 58.6 µM and an IC50 ([15]; ZF4 cell line, NRa endpoint, nominal, read-out: IC50;nom) of 18.5 µg/mL. For the same compound, the IC50 ([16]; AB - ZF4, log10 of IC50, read-out: LogIC50 (converted)) was 124 µM, the IC50 ([16]; AB - ZF4, read-out: IC50) was 124 µM and the IC50 ([16]; ZF4, 48 h exposure, nominal, log10, read-out: logIC50 (log10 IC50;nom) AB (converted)) was 123 µM. The IC50 ([16]; ZF4, 48 h exposure, nominal, read-out: IC50;nom AB) was 124 µM, the IC50 ([17]; NR-fluo - ZF4, log10 of IC50, read-out: LogIC50 (converted)) was 54.3 µM and the IC50 ([17]; NR-fluo - ZF4, read-out: IC50) was 54.3 µM. For the same compound, the IC50 ([17]; ZF4, 48 h exposure, nominal, log10, read-out: logIC50 (log10 IC50;nom) NRf (converted)) was 53.7 µM, the IC50 ([17]; ZF4, 48 h exposure, nominal, read-out: IC50;nom NRf) was 54.3 µM and the AC50 [18] was 0.34 µM. For the same compound, the “potency ratio IC50;nom/EC50;nom (median)” value ([19]; median over cytotoxicity endpoints, nominal, 48 h cells / 48 hpf mFET) was 1.51, the “difference in sensitivity between embryo (EC50;nom) and cells (IC50;nom)” value ([19]; nominal concentrations, higher potency in the mFET) was “equal nominal median concentrations between test systems” and the IC50 ([20]; CFDA - ZF4, log10 of IC50, read-out: LogIC50 (converted)) was 153 µM. The IC50 ([20]; CFDA - ZF4, read-out: IC50) was 153 µM, the IC50 ([20]; ZF4, 48 h exposure, nominal, log10, read-out: logIC50 (log10 IC50;nom) CFDA (converted)) was 151 µM and the IC50 ([20]; ZF4, 48 h exposure, nominal, read-out: IC50;nom CFDA) was 153 µM.
